Assay results as given in PubChem BioAssay AID1259407 (Chemical Carcinogenesis Research Information System (CCRIS), 2018).
Active and inactive are the calls of the source. How the calls were made is not given here. Where a SMILES comes first, the peptide text is derived from it.

System: CCRIS mutagenicity, Ames/micronucleus/aberration tests
Assay: CCRIS mutagenicity studies
Source text: The CCRIS database contains chemical records with carcinogenicity, mutagenicity, tumor promotion, and tumor inhibition test results. It was developed by the National Cancer Institute (NCI). Data are derived from studies cited in primary journals, current awareness tools, NCI reports, and other sources. Test results have been reviewed by experts in carcinogenesis and mutagenesis.
CCRIS provides historical information from the years 1985 - 2011. It is no longer updated.
This is an archive assay for CCRIS mutagenicity studies.

[1] = Test System: AMES SALMONELLA TYPHIMURIUM, Strain/Indicator: TA98, Metabolic Activation: NONE, Method: STANDARD PLATE
[2] = Test System: AMES SALMONELLA TYPHIMURIUM, Strain/Indicator: TA98, Metabolic Activation: RAT, LIVER, S-9, AROCLOR 1254, Method: STANDARD PLATE
[3] = Test System: AMES SALMONELLA TYPHIMURIUM, Strain/Indicator: TA100, Metabolic Activation: NONE, Method: STANDARD PLATE
[4] = Test System: AMES SALMONELLA TYPHIMURIUM, Strain/Indicator: TA100, Metabolic Activation: RAT, LIVER, S-9, AROCLOR 1254, Method: STANDARD PLATE
[5] = Test System: AMES SALMONELLA TYPHIMURIUM, Strain/Indicator: TA98, Metabolic Activation: NONE, Method: PREINCUBATION
[6] = Test System: AMES SALMONELLA TYPHIMURIUM, Strain/Indicator: TA100, Metabolic Activation: NONE, Method: PREINCUBATION

For `COc1ccc(CN(CC[N+](C)(C)[O-])c2ccccn2)cc1`, the mutagenic call (Test System: AMES SALMONELLA TYPHIMURIUM, Strain/Indicator: TA97, Metabolic Activation: NONE, Method: STANDARD PLATE) was “inactive; negative”, the mutagenic call (Test System: AMES SALMONELLA TYPHIMURIUM, Strain/Indicator: TA97, Metabolic Activation: RAT, LIVER, S-9, AROCLOR 1254, Method: STANDARD PLATE) was “inactive; negative” and the mutagenic call [1] was “inactive; negative”. For the same compound, the mutagenic call [2] was “inactive; negative”, the mutagenic call [3] was “inactive; negative” and the mutagenic call [4] was “inactive; negative”. The mutagenic call (Test System: AMES SALMONELLA TYPHIMURIUM, Strain/Indicator: TA102, Metabolic Activation: NONE, Method: STANDARD PLATE) was “inactive; negative” and the mutagenic call (Test System: AMES SALMONELLA TYPHIMURIUM, Strain/Indicator: TA102, Metabolic Activation: RAT, LIVER, S-9, AROCLOR 1254, Method: STANDARD PLATE) was “inactive; negative”.
`CCN(CC)c1ccc2c(C)cc(=O)oc2c1` was tested, and the mutagenic call (Test System: AMES SALMONELLA TYPHIMURIUM, Strain/Indicator: TA98, Metabolic Activation: HAMSTER, LIVER, S-9, AROCLOR 1254, Method: PREINCUBATION) was “inactive; negative”, the mutagenic call [5] was “inactive; negative” and the mutagenic call (Test System: AMES SALMONELLA TYPHIMURIUM, Strain/Indicator: TA98, Metabolic Activation: RAT, LIVER, S-9, AROCLOR 1254, Method: PREINCUBATION) was “inactive; negative”. For the same compound, the mutagenic call (Test System: AMES SALMONELLA TYPHIMURIUM, Strain/Indicator: TA100, Metabolic Activation: HAMSTER, LIVER, S-9, AROCLOR 1254, Method: PREINCUBATION) was “inactive; negative”, the mutagenic call [6] was “inactive; negative” and the mutagenic call (Test System: AMES SALMONELLA TYPHIMURIUM, Strain/Indicator: TA100, Metabolic Activation: RAT, LIVER, S-9, AROCLOR 1254, Method: PREINCUBATION) was “inactive; negative”. For the same compound, the mutagenic call (Test System: AMES SALMONELLA TYPHIMURIUM, Strain/Indicator: TA1535, Metabolic Activation: HAMSTER, LIVER, S-9, AROCLOR 1254, Method: PREINCUBATION) was “inactive; negative”, the mutagenic call (Test System: AMES SALMONELLA TYPHIMURIUM, Strain/Indicator: TA1535, Metabolic Activation: NONE, Method: PREINCUBATION) was “inactive; negative” and the mutagenic call (Test System: AMES SALMONELLA TYPHIMURIUM, Strain/Indicator: TA1535, Metabolic Activation: RAT, LIVER, S-9, AROCLOR 1254, Method: PREINCUBATION) was “inactive; negative”. For the same compound, the mutagenic call (Test System: AMES SALMONELLA TYPHIMURIUM, Strain/Indicator: TA1537, Metabolic Activation: HAMSTER, LIVER, S-9, AROCLOR 1254, Method: PREINCUBATION) was “inactive; negative”, the mutagenic call (Test System: AMES SALMONELLA TYPHIMURIUM, Strain/Indicator: TA1537, Metabolic Activation: NONE, Method: PREINCUBATION) was “inactive; negative” and the mutagenic call (Test System: AMES SALMONELLA TYPHIMURIUM, Strain/Indicator: TA1537, Metabolic Activation: RAT, LIVER, S-9, AROCLOR 1254, Method: PREINCUBATION) was “inactive; negative”.
`COc1cccc2c1C(=O)c1c(O)c3c(c(O)c1C2=O)C[C@@](O)(C(=O)CO)C[C@@H]3O` was tested, and the mutagenic call [1] was “active; positive”, the mutagenic call [2] was “active; positive” and the mutagenic call [3] was “active; positive”. The mutagenic call (Test System: AMES SALMONELLA TYPHIMURIUM, Strain/Indicator: TA1538, Metabolic Activation: NONE, Method: STANDARD PLATE) was “active; positive”.
In the case of `COC1=C(OC)C(=O)C(C)=CC1=O`, the mutagenic call [5] is reported as “inactive; negative”, the mutagenic call (Test System: AMES SALMONELLA TYPHIMURIUM, Strain/Indicator: TA98, Metabolic Activation: RAT, LIVER, S-9, PHENOBARBITAL AND 5,6-BENZOFLAVONE, Method: PREINCUBATION) is reported as “inactive; negative” and the mutagenic call [6] is reported as “inactive; negative”. For the same compound, the mutagenic call (Test System: AMES SALMONELLA TYPHIMURIUM, Strain/Indicator: TA100, Metabolic Activation: RAT, LIVER, S-9, PHENOBARBITAL AND 5,6-BENZOFLAVONE, Method: PREINCUBATION) was “inactive; negative”, the mutagenic call (Test System: AMES SALMONELLA TYPHIMURIUM, Strain/Indicator: TA102, Metabolic Activation: NONE, Method: PREINCUBATION) was “inactive; negative” and the mutagenic call (Test System: AMES SALMONELLA TYPHIMURIUM, Strain/Indicator: TA102, Metabolic Activation: RAT, LIVER, S-9, PHENOBARBITAL AND 5,6-BENZOFLAVONE, Method: PREINCUBATION) was “inactive; negative”. For the same compound, the mutagenic call (Test System: AMES SALMONELLA TYPHIMURIUM, Strain/Indicator: TA104, Metabolic Activation: NONE, Method: PREINCUBATION) was “inactive; negative”, the mutagenic call (Test System: AMES SALMONELLA TYPHIMURIUM, Strain/Indicator: TA104, Metabolic Activation: RAT, LIVER, S-9, PHENOBARBITAL AND 5,6-BENZOFLAVONE, Method: PREINCUBATION) was “inactive; negative” and the mutagenic call (Test System: AMES SALMONELLA TYPHIMURIUM, Strain/Indicator: TA2637, Metabolic Activation: NONE, Method: PREINCUBATION) was “inactive; negative”. The mutagenic call (Test System: AMES SALMONELLA TYPHIMURIUM, Strain/Indicator: TA2637, Metabolic Activation: RAT, LIVER, S-9, PHENOBARBITAL AND 5,6-BENZOFLAVONE, Method: PREINCUBATION) was “inactive; negative”.
In the case of `O=C(c1ccccc1)C1OC1c1ccc([N+](=O)[O-])cc1` (stereo not given), the mutagenic call [1] is reported as “inactive; negative”, the mutagenic call [2] is reported as “inactive; negative” and the mutagenic call [3] is reported as “inactive; negative”. The mutagenic call [4] was “inactive; negative”.
`O=[N+]([O-])c1cccc2c1-c1ccccc1C2` was tested, and the mutagenic call (End Point: IN VITRO CHROMOSOMAL ABERRATIONS, Test System: CHINESE HAMSTER LUNG (CHL) CELLS, Metabolic Activation: NONE) was “active; positive” and the mutagenic call (End Point: IN VITRO CHROMOSOMAL ABERRATIONS, Test System: CHINESE HAMSTER LUNG (CHL) CELLS, Metabolic Activation: RAT, LIVER, S-9, KC-400) was “active; positive”.
`CC(C)(Oc1ccc(C2CCCc3ccccc32)cc1)C(=O)O` (stereo not given) was tested, and the mutagenic call (Test System: AMES SALMONELLA TYPHIMURIUM, Strain/Indicator: TA98, Metabolic Activation: NONE) was “inactive; negative”, the mutagenic call (Test System: AMES SALMONELLA TYPHIMURIUM, Strain/Indicator: TA98, Metabolic Activation: RAT, LIVER, S-9, AROCLOR 1254) was “inactive; negative” and the mutagenic call (Test System: AMES SALMONELLA TYPHIMURIUM, Strain/Indicator: TA102, Metabolic Activation: NONE) was “inactive; negative”. The mutagenic call (Test System: AMES SALMONELLA TYPHIMURIUM, Strain/Indicator: TA102, Metabolic Activation: RAT, LIVER, S-9, AROCLOR 1254) was “inactive; negative”, the mutagenic call (Test System: AMES SALMONELLA TYPHIMURIUM, Strain/Indicator: TA104, Metabolic Activation: NONE) was “inactive; negative” and the mutagenic call (Test System: AMES SALMONELLA TYPHIMURIUM, Strain/Indicator: TA104, Metabolic Activation: RAT, LIVER, S-9, AROCLOR 1254) was “inactive; negative”. For the same compound, the mutagenic call (Test System: UDS RAT HEPATOCYTES, Strain/Indicator: THY INCORP, Metabolic Activation: NONE, Method: LIQUID SCINTILLATION COUNTING) was “inactive; negative”.
`CC(C)C[C@H](NC(=O)[C@H](Cc1ccccc1)NC(=O)CNC(=O)CN)C(=O)O` (H-GGFL-OH) was tested, and the mutagenic call [1] was “inactive; negative”, the mutagenic call [2] was “inactive; negative” and the mutagenic call [3] was “inactive; negative”. For the same compound, the mutagenic call [4] was “inactive; negative”, the mutagenic call (Test System: AMES SALMONELLA TYPHIMURIUM, Strain/Indicator: TA1535, Metabolic Activation: NONE, Method: STANDARD PLATE) was “inactive; negative” and the mutagenic call (Test System: AMES SALMONELLA TYPHIMURIUM, Strain/Indicator: TA1535, Metabolic Activation: RAT, LIVER, S-9, AROCLOR 1254, Method: STANDARD PLATE) was “inactive; negative”. The mutagenic call (Test System: AMES SALMONELLA TYPHIMURIUM, Strain/Indicator: TA1537, Metabolic Activation: NONE, Method: STANDARD PLATE) was “inactive; negative” and the mutagenic call (Test System: AMES SALMONELLA TYPHIMURIUM, Strain/Indicator: TA1537, Metabolic Activation: RAT, LIVER, S-9, AROCLOR 1254, Method: STANDARD PLATE) was “inactive; negative”.
